# Results as given in US20110251104A1, “COMPOSITIONS AND METHODS FOR DETECTING DEACETYLASE ACTIVITY” (priority 2010, published 2011).
# Molecular target: T1, Sirt1 (Homo sapiens, UniProt Q96EB6)
# T1 construct: purchased
# T1 sequence (Q96EB6 1-747): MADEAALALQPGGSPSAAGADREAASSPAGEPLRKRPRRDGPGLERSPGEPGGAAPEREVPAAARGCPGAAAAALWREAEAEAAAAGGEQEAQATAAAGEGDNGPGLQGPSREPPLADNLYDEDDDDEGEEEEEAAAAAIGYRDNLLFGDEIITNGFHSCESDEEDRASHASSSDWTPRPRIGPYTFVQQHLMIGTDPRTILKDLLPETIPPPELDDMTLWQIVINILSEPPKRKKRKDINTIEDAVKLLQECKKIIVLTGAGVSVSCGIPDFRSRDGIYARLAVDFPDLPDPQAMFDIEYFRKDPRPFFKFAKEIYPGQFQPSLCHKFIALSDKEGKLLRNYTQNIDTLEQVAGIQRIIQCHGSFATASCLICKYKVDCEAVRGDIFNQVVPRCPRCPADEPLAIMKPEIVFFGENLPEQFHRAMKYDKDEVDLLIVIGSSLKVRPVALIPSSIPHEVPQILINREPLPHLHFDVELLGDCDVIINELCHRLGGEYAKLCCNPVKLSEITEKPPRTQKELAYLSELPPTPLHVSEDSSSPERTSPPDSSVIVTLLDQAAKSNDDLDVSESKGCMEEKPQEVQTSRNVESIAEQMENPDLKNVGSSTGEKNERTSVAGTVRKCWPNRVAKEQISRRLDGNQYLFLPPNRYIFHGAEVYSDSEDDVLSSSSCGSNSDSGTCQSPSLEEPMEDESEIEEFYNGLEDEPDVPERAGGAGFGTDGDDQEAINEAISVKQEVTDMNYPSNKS
# Experiment: Km determination for SIRT1 substrates by RapidFire mass spectrometric quantification of acetyl-ADPr
# Assay type: biochemical
# Conditions: room temperature, 50 mM Tris pH 7.5, 1/1500 dilution of enzyme, acetyl-ADPr detection
# Source text: A high-throughput in vitro assay using the current invention was developed against a commercially available SIRT1 enzyme preparation. The assay was then used to fully characterize the enzyme preparation through a series of kinetic and end-point assays. Commercially available ADP-ribose was used to develop mass spectrometric methods and separation techniques for sensitive and selective detection in the assay. A quantitative analysis method for acetyl-ADPr, a compound that has a chemical structure and properties similar to ADP-ribose, was developed based on the method developed for ADP-ribose.
# Next, ADP-ribose was dissolved at a concentration of 1.0 micromolar in an assay buffer consisting of 50 mM Tris pH 7.5 containing 137 mM NaCl, 2.7 mM KCl, 1 mM MgCl2, 0.1% BSA, 1 mM NAD^+. Separation conditions to purify ADP-ribose from the assay buffer for mass spectrometric analysis were developed on a RapidFire® 200 High-Throughput Mass Spetrometry system. The optimized conditions for sample desalting were determined to be a sample wash with water for 3 seconds at a flow rate of 1.5 mL/min and sample elution with a 2:1:1 solution of water:acetonitrile:acetone containing 5 mM ammonium acetate for 3.5 seconds at a flow rate of 1.25 mL/min. […]
compound,measurement,value
"NC(=O)c1ccc[n+]([C@@H]2O[C@H](COP(=O)([O-])OP(=O)(O)OC[C@H]3O[C@@H](n4cnc5c(N)ncnc54)[C@H](O)[C@@H]3O)[C@@H](O)[C@H]2O)c1 [NAD+, nicotimamide adenine dinucleotide]",Km,54 ± 1 µM
